Data on three compounds can be found in patent US11779585B2 (priority 2020, dated 2023).

SMILES strings stand for the structures. “And” between values parts separate entries of the source, which are not always exact repeats. Identical values can stand only once. Like-named read-outs stand apart in the source and are kept apart here.

In one series the test system is SARS-CoV2. Put plainly: microbe, parasite or virus in culture. In kind it is cell-based, SARS-CoV-2.
Another series deals with SARS-CoV. Particulars: Dyall et al.; cited from earlier work.
A further series concerns MERS-CoV. Conditions: Dyall et al.; cited from earlier work.
In a further series the test system is Vero E6 cells. Conditions: hydrochloride.
In a further series the test system is 2019-nCoV. Conditions: Wang et al., not in Table 7; cited from earlier work.
[1] abbreviates: Severe acute respiratory syndrome coronavirus 2, Vero C1008.

Broadly, the Inhibition is the change of the read-out against control, counted positive when it falls. One may read the IC50 as the point on the concentration scale where inhibition reaches its midpoint. What is called inhibition is the change of the read-out against control, counted positive when it falls. Low readings indicate little suppression, high ones strong suppression. Consider `CN(C)CCCN1c2ccccc2Sc2ccc(Cl)cc21.Cl` [Chlorpromazine HCl, chlorpromazine HCl, reference compound], for which the Inhibition came out at 100.2% in the series with SARS-CoV2 (30 µM, HCl) and 100.2% in the series on SARS-CoV2 (60 µM, HCl). In addition, the IC50 in the series on SARS-CoV2 (setting [1]) is 7.2 µM; in the series with SARS-CoV it was 13 µM; in the series with MERS-CoV, 9.5 µM. Further, the inhibition at 30 µM in the series on SARS-CoV2 (setting [1]) is 100%.

With `Cl.NC(=O)c1cn([C@@H]2O[C@H](CO)[C@@H](O)[C@H]2O)c2ncnc(N)c12` [Oya2, 4-amino-7-((2R,3R,4S,5R)-3,4-dihydroxy-5-(hydroxymethyl)tetrahydrofuran-2-yl)-7H-pyrrolo[2,3-d]pyrimidine-5-carboxamide hydrochloride], the Cytotoxicity is −2.54% and −1.465% and −2.751% with Vero E6 cells (0.0047 μM, MOI 0.6, Plate 1); −2.54% and −1.465% and −2.751% with Vero E6 cells (0.0047 μM, MOI 0.6, Plate 2); 0.4496% and −3.731% and −1.047% in the series with Vero E6 cells (0.0094 μM, MOI 0.6, Plate 1); 0.4496% and −3.731% and −1.047% with Vero E6 cells (0.0094 μM, MOI 0.6, Plate 2); −1.946% and −1.045% and −1.4651% in the series with Vero E6 cells (0.0188 μM, MOI 0.6, Plate 1); −1.946% and −1.045% and −1.4651% in the series on Vero E6 cells (0.0188 μM, MOI 0.6, Plate 2). The Cytotoxicity in the series with Vero E6 cells (0.075 μM, MOI 0.6, Plate 1) was 16.08% and 19.63% and 18.13%; in the series with Vero E6 cells (0.075 μM, MOI 0.6, Plate 2), 16.08% and 19.63% and 18.13%; in the series on Vero E6 cells (0.15 μM, MOI 0.6, Plate 1), 35.37% and 35.25% and 31.56%; in the series on Vero E6 cells (0.15 μM, MOI 0.6, Plate 2) it was 35.37% and 35.25% and 31.56%; with Vero E6 cells (0.3 μM, MOI 0.6, Plate 1), 55.54% and 56.53% and 57.44%; in the series with Vero E6 cells (0.3 μM, MOI 0.6, Plate 2), 55.54% and 56.53% and 57.44%. The Cytotoxicity is 69.74% and 68.71% and 69.51% with Vero E6 cells (0.6 μM, MOI 0.6, Plate 1); 69.74% and 68.71% and 69.51% in the series on Vero E6 cells (0.6 μM, MOI 0.6, Plate 2). For the same compound, the Inhibition with SARS-CoV2 (0.0047 μM, MOI 0.6, Plate 2, hydrochloride) was 6.759% and 2.316%; in the series with SARS-CoV2 (0.0047 μM, title MOI 0.6 (text MOI 1.3), Plate 1, hydrochloride), −4.548% and −2.306% and −5.003%; in the series with SARS-CoV2 (0.0047 μM, title MOI 0.6 (text MOI 1.3), Plate 2, hydrochloride), −12.4801% and −9.091%; with SARS-CoV2 (0.0094 μM, MOI 0.6, Plate 2, hydrochloride), 22.21%; in the series with SARS-CoV2 (0.0094 μM, title MOI 0.6 (text MOI 1.3), Plate 2, hydrochloride), −4.5066% and −0.5728% and 3.754%; with SARS-CoV2 (0.0188 μM, MOI 0.6, Plate 2, hydrochloride) it was 9.743% and 4.635%. Also, the Inhibition was 1.888% and −0.5178% and 4.439% with SARS-CoV2 (0.0188 μM, title MOI 0.6 (text MOI 1.3), Plate 1, hydrochloride); 12.21% and 2.813% and 5.217% in the series with SARS-CoV2 (0.0375 μM, MOI 0.6, Plate 1, hydrochloride); −1.2509% and −10.9963% in the series with SARS-CoV2 (0.0375 μM, MOI 0.6, Plate 2, hydrochloride); 9.292% and 6.13% with SARS-CoV2 (0.0375 μM, title MOI 0.6 (text MOI 1.3), Plate 2, hydrochloride); 48.8% and 30.54% in the series with SARS-CoV2 (0.075 μM, MOI 0.6, Plate 1, hydrochloride); 77.73% in the series with SARS-CoV2 (0.075 μM, MOI 0.6, Plate 2, hydrochloride). The Inhibition with SARS-CoV2 (0.15 μM, MOI 0.6, Plate 1, hydrochloride) is 94.81% and 98.18%; with SARS-CoV2 (0.15 μM, MOI 0.6, Plate 2, hydrochloride), 99.76%; in the series on SARS-CoV2 (0.15 μM, title MOI 0.6 (text MOI 1.3), Plate 1, hydrochloride), 100.5487% and 99.6%; with SARS-CoV2 (0.15 μM, title MOI 0.6 (text MOI 1.3), Plate 2, hydrochloride), 95.57% and 98.32%; in the series on SARS-CoV2 (0.3 μM, MOI 0.6, Plate 1, hydrochloride) it was 99.8055%; in the series with SARS-CoV2 (0.3 μM, MOI 0.6, Plate 2, hydrochloride) it was 99.76%. The Inhibition in the series on SARS-CoV2 (0.3 μM, title MOI 0.6 (text MOI 1.3), Plate 1, hydrochloride) is given as 99.49%; with SARS-CoV2 (0.3 μM, title MOI 0.6 (text MOI 1.3), Plate 2, hydrochloride), 97.81%; in the series on SARS-CoV2 (0.6 μM, MOI 0.6, Plate 1, hydrochloride), 99.76%; with SARS-CoV2 (0.6 μM, MOI 0.6, Plate 2, hydrochloride) it was 100.0302%.

Take `CCN(CC)CCCC(C)Nc1ccnc2cc(Cl)ccc12` (stereo not shown) [chloroquine]: in the series on 2019-nCoV, the IC50 is 1.13 µM.
